Experimental data reported in patent publication US20240400555A1 (Initial Therapeutics, Inc., priority 2023, published 2024).

Tested on: HCT-116 Firefly-luciferase reporter cells
Assay: Cellular c-MYC Reporter Assay
Assay type: cell-based
Settings: Homo sapiens; untitled table following Table 8a; HCT-116 Firefly-luciferase reporter cells, 24 h; read-out: pIC50 (converted)
Protocol: HCT-116 Firefly-luciferase reporter cells (BPS Bioscience) were seeded in 96-well tissue-culture treated sterile plates (Greiner Bio-One) at 5e4 cells/mL in 100 μL complete growth media (McCoy's 5A+10% FBS, +1% Pen-Strep, +1% G418). Cells were incubated at 37° C. with 5% CO2 for 4-6 h then treated with 3× compound solution in 50 μL complete growth media for a final volume of 150 μL per well with 0.2% DMSO. After 24 h incubation at 37° C. with 5% CO2, plates were allowed to equilibrate to RT for 20 min then developed by addition of 100 μL ONE-Glo Luciferase detection reagent (Promega), incubated at RT for 10 min. Luminescence was recorded using a SpectraMax i3x plate reader (Molecular Devices) and analyzed using Prism GraphPad 9 software.

Structure (SMILES) | IC50 [nM]
Cc1csc2ccnc(N(C(=O)c3ccc(-n4nnc5cccnc54)cc3F)[C@@H]3CCCNC3)c12 [Example 121, 2-fluoro-N-(3-methylthieno[3,2-c]pyridin-4-yl)-N-[(3R)-3-piperidyl]-4-(triazolo[4,5-b]pyridin-3-yl)benzamide] | 38
O=C(c1ccc(-n2nnc3cccnc32)cc1F)N(c1nccc2scc(Br)c12)[C@@H]1CCCNC1 [Example 122, (R)-4-(3H-[1,2,3]triazolo[4,5-b]pyridin-3-yl)-N-(3-bromothieno[3,2-c]pyridin-4-yl)-2-fluoro-N-(piperidin-3-yl)benzamide] | 123
Cc1cccc2ccnc(N(C(=O)c3ccc(-c4n[nH]c5c4CCCC5)cc3F)[C@@H]3CCCNC3)c12 [Example 123, (R)-2-fluoro-N-(8-methylisoquinolin-1-yl)-N-(piperidin-3-yl)-4-(4,5,6,7-tetrahydro-1H-indazol-3-yl) benzamide] | 5010
Cc1cccc2ccnc(N(C(=O)c3ccc(N)cc3F)[C@@H]3CCCNC3)c12 [Example 124, (R)-4-amino-2-fluoro-N-(8-methylisoquinolin-1-yl)-N-(piperidin-3-yl) benzamide] | 3890
Cc1cccc2ccnc(N(C(=O)c3ccc(-c4nnn(C)n4)cc3F)[C@@H]3CCCNC3)c12 [Example 125, (R)-2-fluoro-4-(2-methyl-2H-tetrazol-5-yl)-N-(8-methylisoquinolin-1-yl)-N-(piperidin-3-yl) benzamide] | 24.5
Cc1cccc2ccnc(N(C(=O)c3ccc(-c4cnn(C)c4-c4ccccc4)cc3F)[C@@H]3CCCNC3)c12 [Example 126, (R)-2-fluoro-4-(1-methyl-5-phenyl-1H-pyrazol-4-yl)-N-(8-methylisoquinolin-1-yl)-N-(piperidin-3-yl) benzamide] | 355
Cc1nnc(-c2ccc(C(=O)N(c3nccc4cccc(C)c34)[C@@H]3CCCNC3)c(F)c2)s1 [Example 127, (R)-2-fluoro-4-(5-methyl-1,3,4-thiadiazol-2-yl)-N-(8-methylisoquinolin-1-yl)-N-(piperidin-3-yl) benzamide] | 339
Cc1cccc2ccnc(N(C(=O)c3ccc(-c4nnn[nH]4)cc3)[C@H]3CCCNC3)c12 [Example 128, (S)—N-(8-methylisoquinolin-1-yl)-N-(piperidin-3-yl)-4-(1H-tetrazol-5-yl)benzamide] | > 10000
COC(=O)c1ccc2ccnc(N(C(=O)c3ccc(-n4nnc5cccnc54)cc3F)[C@@H]3CCCNC3)c2c1 [Example 129, methyl (R)-1-(4-(3H-[1,2,3]triazolo[4,5-b]pyridin-3-yl)-2-fluoro-N-(piperidin-3-yl)benzamido)isoquinoline-7-carboxylate] | 339
CCOC(=O)/C=C/c1ccc2ccnc(N(C(=O)c3ccc(-n4nnc5cccnc54)cc3F)[C@@H]3CCCNC3)c2c1 [Example 130, ethyl (R,E)-3-(1-(4-(3H-[1,2,3]triazolo[4,5-b]pyridin-3-yl)-2-fluoro-N-(piperidin-3-yl)benzamido)isoquinolin-7-yl)acrylate] | 2290
Cc1cccc2ccnc(N(C(=O)c3ccc(Nc4cccn(C)c4=O)cc3F)[C@@H]3CCCNC3)c12 [Example 131, (R)-2-fluoro-4-((1-methyl-2-oxo-1,2-dihydropyridin-3-yl)amino)-N-(8-methylisoquinolin-1-yl)-N-(piperidin-3-yl)benzamide] | 1910
Cc1cccc2ccnc(N(C(=O)c3ccc(Nc4ccc[nH]c4=O)cc3F)[C@@H]3CCCNC3)c12 [Example 132, (R)-2-fluoro-N-(8-methylisoquinolin-1-yl)-4-((2-oxo-1,2-dihydropyridin-3-yl)amino)-N-(piperidin-3-yl)benzamide] | 1580
Cc1cccc2ccnc(N(C(=O)c3ccc(Oc4ncccn4)cc3F)[C@@H]3CCCNC3)c12 [Example 133, 2-fluoro-N-(8-methyl-1-isoquinolyl)-N-(3-piperidyl)-4-pyrimidin-2-yloxy-benzamide] | 269
